Source: patent US11059795B2, “Androgen receptor modulators and methods for their use” (ESSA Pharma, Inc., priority 2018, dated 2021)

How the values were obtained:
[1] = Microsomal stability assay, human liver microsomes; type: in vitro ADME; conditions: pH 7.4, 1 μM compound, 0.5 mg/mL protein, 37° C., read-out: HLM +/− NADPH: Clint (μL/min/mg protein)
Outline: (§1)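 Compound at 1 μM was incubated at 37° C with 0.5 mg/mL liver microsomes and 1 mM NADPH and/or 1 mM UDPGA (with alamethicin) in 100 mM potassium phosphate pH 7.4, 3 mM MgCl2. Samples were taken at 0, 15, 30 and 60 min and measured by LC/MS/MS. t½ came from compound loss relative to 0 min, and Clint was scaled with 45 mg microsomal protein/g liver.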

[2] = In vivo pharmacokinetics in plasma after oral gavage (PO) in male CD-1 mice; conditions: plasma, single PO dose 5 mg/kg, male CD-1 mice; for bioavailability / AUC(0-t) / Cmax / Tmax / half-life: mouse; for bioavailability: oral availability; for half-life: read-out: t½ (converted)
Procedure: The purpose of this study is to determine the pharmacokinetics of the tested compounds in plasma, following oral gavage administration (PO) to male CD-1 mice.
Animal Husbandry: Animals were group housed during acclimation and the study. The animal room environment were controlled (target conditions: temperature 18 to 26° C., relative humidity 30 to 70%, 12 hours artificial light and 12 hours dark). Temperature and relative humidity were monitored daily. Animals were fasted at least 12 hours prior to the administration. All animals had access to Certified Rodent Diet ad libitum 4 hours post dosing.
Dose Formulation: prepared 85-100 uL of a stock solution of representative compounds of the disclosure in DMSO at 50 mM; 1.5% v/v of Tween 80 were added and mixed gently; 95.5% v/v saline was added gently to the organic phase. The solution was mixed slowly by reverse pipetting to get a clear solution.
Dose Administration: the dose formulations were administered via oral gavage per facility SOPs. The dose volume were determined by the animals' body weight collected on the morning of dosing day
Sample Collection: blood collection (about 0.05 mL per time point) was performed from saphenous vein of each animal into polypropylene tubes at each timepoints (0, 0.25, 0.5, 1, 2, 4, 8, 12, and 24 hr). All blood samples were transferred into pre-chilled tubes containing 2 μL of K2-EDTA (0.5M) and placed on wet ice until centrifugation. Each collected blood sample was in the wet-ice before centrifugation. Each collected blood was under centrifugation for 15 minutes at 4° C. and 3000 g for plasma collection. Plasma samples were stored in polypropylene tubes, quickly frozen over dry ice and kept at −70±10° C. until LC/MS/MS analysis.
Bioanalytical analysis: A LC-MS/MS method for the quantitative determination of tested compound in biological matrix were developed under non-GLP compliance. A calibration curve with at least 7 non-zero calibration standards were applied for the method including LLOQ.
Plasma concentration versus time data were analyzed by non-compartmental approaches using the Phoenix WinNonlin 6.3 software program. Cl, Vdss, C0, Cmax, Tmax, T^1/2, AUC(0-t), AUC(0-inf), MRT(0-t), MRT(0-inf), % F (oral availability) and graphs of plasma concentration versus time profile were reported.

androgen receptor (AR) = biological target: T1, androgen receptor (AR) (Homo sapiens, UniProt P10275, T878A); experiment: Androgen-induced PSA (6.1 kb)-luciferase reporter assay in LNCaP cells; type: cell-based; conditions: LNCaP cells transfected with PSA (6.1 kb)-luciferase reporter, R1881 1 nM, 24 h; read-out: PSA-Luc IC50 Range
T1 construct: LNCaP cells were transiently transfected with the PSA (6.1 kb)-luciferase reporter for 24 h; endogenous in cells; host or cells: LNCaP
T1 sequence (P10275 1-920 T878A): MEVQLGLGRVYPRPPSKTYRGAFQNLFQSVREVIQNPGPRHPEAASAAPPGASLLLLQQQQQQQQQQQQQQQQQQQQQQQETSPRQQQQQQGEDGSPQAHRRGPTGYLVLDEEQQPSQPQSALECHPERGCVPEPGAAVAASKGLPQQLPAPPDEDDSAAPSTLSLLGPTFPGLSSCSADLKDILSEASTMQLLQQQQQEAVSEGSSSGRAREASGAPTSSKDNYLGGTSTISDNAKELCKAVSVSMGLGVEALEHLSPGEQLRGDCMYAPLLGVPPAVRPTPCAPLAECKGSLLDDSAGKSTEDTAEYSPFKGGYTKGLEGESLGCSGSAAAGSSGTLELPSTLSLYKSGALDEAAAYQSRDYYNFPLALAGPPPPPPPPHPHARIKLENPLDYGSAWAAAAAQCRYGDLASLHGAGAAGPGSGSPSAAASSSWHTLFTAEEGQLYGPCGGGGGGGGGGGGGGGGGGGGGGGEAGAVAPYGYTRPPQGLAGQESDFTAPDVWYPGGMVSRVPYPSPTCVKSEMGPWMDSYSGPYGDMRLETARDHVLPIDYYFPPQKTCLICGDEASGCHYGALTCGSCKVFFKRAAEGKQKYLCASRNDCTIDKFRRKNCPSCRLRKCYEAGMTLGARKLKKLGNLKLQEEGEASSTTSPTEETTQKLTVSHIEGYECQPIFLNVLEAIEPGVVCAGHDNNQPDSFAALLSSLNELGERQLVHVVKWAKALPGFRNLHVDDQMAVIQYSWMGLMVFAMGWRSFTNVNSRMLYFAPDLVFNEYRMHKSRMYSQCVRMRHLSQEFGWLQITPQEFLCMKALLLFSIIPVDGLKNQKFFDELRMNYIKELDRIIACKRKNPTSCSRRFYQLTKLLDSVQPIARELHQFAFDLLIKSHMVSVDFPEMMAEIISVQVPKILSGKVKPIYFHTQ
Outline: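 LNCaP cells carrying a PSA (6.1 kb) promoter-luciferase reporter with AREs; androgen-induced firefly luciferase read from lysates for 10 s. RLU normalized to protein content; IC50 calculated from the normalized data.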

[3] = Microsomal stability assay, mouse liver microsomes; type: in vitro ADME; conditions: mouse, liver microsomes, pH 7.4, mouse liver microsomes, 1 μM compound, 0.5 mg/mL protein, 37° C.; read-out: MLM +30/− NADPH: Clint (μL/min/mg protein)
Outline: as §1

PC3 cells = experiment: Cell proliferation/viability assay, PC3 (Alamar blue); type: cell-based; conditions: Homo sapiens; PC-3, Alamar blue; read-out: Cellular Proliferation/Viability IC50 (μM) PC-3
Procedure: (§2) Cell proliferation/viability was measured in LNCaP and PC3 cells with Alamar blue, and proliferation was measured in LN-CaP95 cells with BrdU incorporation. In LNCaP cells, AR specific proliferation is calculated by measuring the difference between control cells treated with or without 0.1 nM R1881.

LN-CaP95 cells = experiment: Cell proliferation assay, LNCaP95 (BrdU incorporation); type: cell-based; conditions: LNCaP-95, read-out: Cellular Proliferation/Viability IC50 (μM) LNCaP95
Procedure: as §2

[4] = biological target: T2, LBD of estrogen receptor-α (ERα) fused to DBD of GAL4 (Homo sapiens, UniProt P03372); experiment: LBD-expressing reporter assay (GeneBLAzer), ERα LBD; type: cell-based; conditions: inhibition of maximal activity attained with agonist; read-out: Steroid Receptor LBD IC50 (μM) ERα
T2 sequence (P03372 311-547 limits assumed): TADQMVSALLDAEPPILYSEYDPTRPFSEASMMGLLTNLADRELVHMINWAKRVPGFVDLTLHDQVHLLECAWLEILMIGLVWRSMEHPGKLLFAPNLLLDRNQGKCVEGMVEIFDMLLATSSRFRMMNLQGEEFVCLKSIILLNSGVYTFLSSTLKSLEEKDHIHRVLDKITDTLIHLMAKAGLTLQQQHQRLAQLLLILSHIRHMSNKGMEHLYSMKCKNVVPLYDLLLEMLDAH
Description: (§3) This assay uses cells that stably express a chimera fusion protein comprising the LBD of a steroid hormone receptor fused to the DNA-binding domain (DBD) of GAL4 along with beta-lactamase reporter under transcriptional control of an upstream activator sequence (UAS). When agonist binds to the LBD of the GAL4 (DBD)-steroid hormone (LBD) chimera fusion protein, the protein binds to the UAS, resulting in expression of beta-lactamase. LBDs of androgen receptor (AR), progesterone receptor-beta (PRβ), glucocorticoid receptor (GR), estrogen receptor-α (ERα), and estrogen receptor-β (ERβ) were tested and IC50s calculated for inhibiting maximal activity attained with agonist.

[5] = biological target: T3, LBD of glucocorticoid receptor (GR) fused to DBD of GAL4 (Homo sapiens, UniProt P04150); experiment: LBD-expressing reporter assay (GeneBLAzer), GR LBD; type: cell-based; conditions: inhibition of maximal activity attained with agonist; read-out: Steroid Receptor LBD IC50 (μM) GR
T3 sequence (P04150 524-758 limits assumed): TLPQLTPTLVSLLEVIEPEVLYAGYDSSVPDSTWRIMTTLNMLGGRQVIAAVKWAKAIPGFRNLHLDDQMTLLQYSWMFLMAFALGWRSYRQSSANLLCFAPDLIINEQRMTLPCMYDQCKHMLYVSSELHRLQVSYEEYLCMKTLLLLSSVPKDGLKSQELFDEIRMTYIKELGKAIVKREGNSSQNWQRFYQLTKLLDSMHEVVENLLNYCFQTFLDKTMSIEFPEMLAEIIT
Description: as §3

[6] = biological target: T4, LBD of progesterone receptor-beta (PRβ) fused to DBD of GAL4 (Homo sapiens, UniProt P06401); experiment: LBD-expressing reporter assay (GeneBLAzer), PR LBD; type: cell-based; conditions: inhibition of maximal activity attained with agonist; read-out: Steroid Receptor LBD IC50 (μM) PR
T4 sequence (P06401 679-913 limits assumed): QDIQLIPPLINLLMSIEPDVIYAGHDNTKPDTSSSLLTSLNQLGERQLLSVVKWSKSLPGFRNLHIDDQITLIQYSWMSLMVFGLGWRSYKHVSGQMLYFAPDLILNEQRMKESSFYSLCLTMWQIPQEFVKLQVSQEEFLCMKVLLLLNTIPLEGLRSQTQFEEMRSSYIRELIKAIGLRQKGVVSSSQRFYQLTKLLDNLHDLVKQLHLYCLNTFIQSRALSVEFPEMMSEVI
Description: as §3

[7] = biological target: LBD of estrogen receptor-β (ERβ) fused to DBD of GAL4 (Homo sapiens, UniProt Q92731); experiment: LBD-expressing reporter assay (GeneBLAzer), ERβ LBD; type: cell-based; conditions: inhibition of maximal activity attained with agonist; read-out: Steroid Receptor LBD IC50 (μM) ERβ
Description: as §3, with “To assess if the representative compounds (Compounds A13, A28, A38, A74, A93, and A109) compete with ligand (agonist) for the ligand-binding domain (LBD) of steroid hormone receptors (which would be off-target), the GeneBLAzer assay was employed (Thermo Fisher). This” for “This”

LNCaP cells = experiment: Cell proliferation/viability assay, LNCaP (Alamar blue); type: cell-based; conditions: Homo sapiens, AR specific proliferation with 0.1 nM R1881, read-out: Cellular Proliferation/Viability IC50 (μM) LNCaP
Procedure: as §2

Chain of LBD of estrogen receptor-β (ERβ) fused to DBD of GAL4 (Q92731 264-498 limits assumed): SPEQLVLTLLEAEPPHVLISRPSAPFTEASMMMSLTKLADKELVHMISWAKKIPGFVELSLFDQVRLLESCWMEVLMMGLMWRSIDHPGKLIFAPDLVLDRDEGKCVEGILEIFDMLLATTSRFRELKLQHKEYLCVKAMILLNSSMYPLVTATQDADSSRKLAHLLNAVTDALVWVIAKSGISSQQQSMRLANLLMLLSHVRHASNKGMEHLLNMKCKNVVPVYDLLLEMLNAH

microsomal CLint at 1 μM [1] [µL/min/mg] | bioavailability [2] [%] | AUC(0-t) [2] [ng·h/mL] | Cmax [2] [ng/mL] | Tmax [2] [h] | half-life [2] [h] | AUC/D [2] [kg·ng·h/mL/mg] | IC50 (androgen receptor (AR)) [µM] | microsomal CLint at 1 μM [3] [µL/min/mg] | IC50 (PC3 cells) [µM] | IC50 (LN-CaP95 cells) [µM] | IC50 [4] [µM] | IC50 [5] [µM] | IC50 [6] [µM] | IC50 [7] [µM] | IC50 (LNCaP cells) [µM] | SMILES
12 to 48 | 60.6 | 5190 | 2010 | 0.5 | 2.5 | 1037.3 | < 0.5 | 12 to 48 |  |  |  |  |  |  |  | Cc1cc(C(C)(C)c2ccc(OCc3ocnc3S(C)(=O)=O)cc2)cc(C#N)c1OCCCl [Compound A29, 2-(2-chloroethoxy)-3-methyl-5-(2-(4-((4-(methylsulfonyl)oxazol-5-yl)methoxy)phenyl)propan-2-yl)benzonitrile]
< 12 | 49.6 | 2420 | 819 | 0.5 | 4 | 483.0 | 0.5 to 2 | 12 to 48 |  |  |  |  |  |  |  | CC(Oc1ccc(C(C)(C)c2cc(Cl)c(OCCCl)c(Cl)c2)cc1)c1ocnc1S(C)(=O)=O (stereo not shown) [Compound A35, 5-(1-(4-(2-(3,5-Dichloro-4-(2-chloroethoxy)phenyl)propan-2-yl)phenoxy)ethyl)-4-(methylsulfonyl)oxazole]
< 12 | 71.4 | 11900 | 1610 | 0.8 | 12 | 2385.4 | 0.5 to 2 | < 12 |  |  |  |  |  |  |  | CC(C)(c1ccc(OCc2ncc(S(C)(=O)=O)o2)cc1)c1cc(Cl)c(OCCCl)c(Cl)c1 [Compound A66]
 |  |  |  |  |  |  |  |  | > 10 | ~20 | > 10 | > 10 | > 10 | > 10 | 9 | CC(C)(c1ccc(OC[C@H](O)CO)cc1)c1ccc(OC[C@H](O)CCl)cc1 [EPI-002, reference compound]
